Experimental data: patent US20230107216A1, “PANTETHEINE DERIVATIVES AND USES THEREOF” (Comet Therapeutics, Inc., priority 2018, published 2023)
Read-outs that look alike come from different tables or passages of the source.

Tests used:
[1] = tested on: Subnormal activation of pyruvate dehydrogenase complex (PDH) primary fibroblasts GM01503 (GM1503A); assay: Total NAD+ + NADH and NAD+ (NAD/NADH-Glo), PDH fibroblasts GM01503; type: cell-based; settings: Homo sapiens, Fibroblast, 24h, read-out: Increase in Total NAD+ + NADH
Description: Primary adherent fibroblasts were cultured in minimum essential medium (MEM) (Gibco, 25030081) supplemented with 2 mM L-Glutamine (Gibco, 25030081), 15% fetal bovine serum (FBS) (Gibco, 26400044) and 1% penicillin/streptomycin (Gibco, 5140122) at 37° C. and 5% CO2. Cells were collected for either passaging or experiment at ˜70-80% confluence. Cells were obtained by trypsinization and seeded in cell culture microplates either white plate (Thermo Fisher Scientific, 152028) for luminescent measurement or black plate (Thermo Fisher Scientific, 165305) for fluorescent based read out for different assays listed below. Cells were obtained by trypsinization and […] were seeded and allowed to adhere for 16-18 hours to have confluency around 70-80% in the cell well with culture media. After 24 hours prior to measurements (37° C., 5% CO2) media was changed to Dulbecco's Modified Eagle Medium (DMEM, Agilent Seahorse cat #103575-100) with the appropriate supplements as stated below.
Primary fibroblasts assayed were Propionic Acidemia (PA) (GM03590 Coriell Institute for Medical Research, Tsi 6337 Trans-Hit Bio), Methylmalonic Acidemia (MMA) (Tsi 5224 Trans-Hit Bio), Subnormal activation of pyruvate dehydrogenase complex (PDH) (GM01503 Coriell Institute for Medical Research), Very long-chain acyl-CoA dehydrogenase (VLCAD) (GM17475), Leigh Syndrome (LS) (GM03672, GM13411 Coriell Institute for Medical Research), Pyruvate Carboxylase Deficiency (PC) (GM00444 Coriell Institute for Medical Research). 10 μM of Compounds were added for 2 hours in PA, MMA lines and for 24h for the other fibroblast lines.
Assay was performed according to manufacturer instructions (NAD/NADH-Glo Assay Promega, G9072). The NAD/NADH-Glo Assay is a bioluminescent assay for detecting total oxidized and reduced nicotinamide adenine dinucleotides (NAD+ and NADH, respectively) from which ratio of NAD/NADH can be calculated. Briefly, for every assay a 12-point standard curve was prepared ranging from 400 nM to 0.625 nM. Media was removed and replaced with 50 μl of PBS for both assays.
For individual NAD+ and NADH measurement, 50 μl of 1% DTAB (Sigma Cat #D5047) (cell lysis reagent) in 0.2N NaOH was added to the plate and a total 100 μl of lysate was split into two plates with 50 μl each. 25 μl of 0.4N HCl were added to the NAD+ plate and both NAD+ and NADH plate were heated at 60° C. for 15 minutes. The acid and heat treatment destroyed NADH allowing individual NAD+ measurement while heating in basic conditions destroys NAD+ allowed individual NADH measurements. The plates were allowed to come to room temperature for 10 minutes and Trizma base (Sigma, T1699) was added to the NAD+ plate to neutralize the acid and HCl Trizma hydrochloride (Sigma, T2694) was added to the NADH plate. The NADNADH glo reagent was prepared by adding: 625 μl of NAD cycling substrate, 125 μl of reductase, 125 μl of reductase substrate, 125 μl NAD cycling enzyme to total of the 25 ml of NAD GLO reagent. 1:1 ratio of total volume of reagent was added to the individual NAD+, NADH measurement (total 100 μl) and 50 μl for total NAD/NAH measurement. Luminescence was read between 30-60 minutes within the linear range.
A total dead cell count was performed as described in Example 817 and only alive cells were used for analysis.

[2] = tested on: tyrosine hydroxylase positive mesencephalic neurons injured by 6-OHDA; assay: Neuroprotective effect on damage induced by 6-OHDA on culture of mesencephalic neurons; type: cell-based; settings: Rattus norvegicus, Neuron, 6-OHDA 15 μM, 48h, read-out: % reversion of TH positive neurons (6-OHDA-mediated degradation of dopaminergic neurons)
Description: The protective effect of compounds of the present disclosure was determined on 6-OHDA-mediated injury on mesencephalon neuronal cultures.
A female Wistar rat (Janvier; France) of 15 days gestation was terminated by cervical dislocation, the fetuses were removed from the uterus and their brains were harvested and placed in ice-cold medium (Leibovitz's L15 medium, Gibco). Only ventral mesencephalic flexure was used for the cell preparations. The midbrain was dissociated by trypsinization. The reaction was stopped, and the suspension was triturated and centrifuged. The pellet of dissociated cells was resuspended in chemically defined medium consisted of Neurobasal (Gibco, 21103049), containing B27 supplement (Gibco, A3582801) and L-glutamine (Gibco, 25030081), 10 ng/ml (BDNF; Pepro Tech, France, 450-02) and 1 ng/ml (GDNF; Pepro Tech, 450-51).
Viable primary rat embryo mesencephalic cells were counted and seeded on 96-multi-wells plate precoated with poly-L-lysine. Cells were maintained in a humidified incubator at 37° C. in 5% CO2-95% air atmosphere and medium changed on day 2. On day 6, the culture medium was removed and replaced by new media without neurotrophic factors containing the compounds of the present disclosure (50-10 μM) or vehicle (0.1% DMSO). After 1h exposure, injury of mesencephalon neuronal cultures was induced by 6-OHDA (15 μM) for further 48h. A mixture of the growth factors GDNF (1 ng/ml) and BDNF (10 ng/ml) were used as reference compound. On day 8, the tyrosine hydroxylase positive neurons were evaluated. Cultures were fixed 30 min at 4° C. with paraformaldehyde in PBS (4%, Sigma). After, cells were permeabilized with 0.1% Triton X100 for 30 min, saturated with PBS containing 3% of BSA (bovine serum albumin) and incubated 2h with anti-tyrosine hydroxylase antibody (Sigma, 1:10000; clone TH-2) at 1/10000 in PBS containing 0.5% of BSA. Cells were washed three times with PBS containing 0.5% of BSA and incubated 1h with goat anti mouse antibody coupled with AF488 (Invitrogen A11001) diluted at 1/1000 in PBS containing 0.5% of BSA. Finally, nuclei were stained with DAPI (Thermo fisher, D1306) at 1/1000 in PBS containing 0.5% of BSA. After rinsing with PBS, the plate was visualized and examined with Cell Insight HCS (Thermo Scientific) to determine the number of tyrosine hydroxylase positive cells per well.
The results for each well were expressed as a percentage by setting the density of tyrosine hydroxylase positive cells under control conditions to 100%. Then the result for each condition was reported as mean±SEM from 4 independent cultures.
A global analysis of the data was performed using a one-way analysis of variance (ANOVA), followed by Fisher's Protected Least Significant Difference when applicable. The level of significance was set to p<0.05.

[3] = tested on: Bronchial epithelial cells co-cultured with dermal fibroblast (BF4T system); assay: BioMAP BF4T system (TNFα and IL-4); type: cell-based, human; settings: for activation at 1 µM: Homo sapiens, 24 h, procedure of Example 830, read-out: % increase in VCAM-1
[4] = PDH GM1503A P10, assay condition A
[5] = PDH GM1503A P10, assay condition B

Structure (SMILES): CC(=O)OCC(C)(C)[C@@H](O)C(=O)NCCC(=O)NCCSC(=O)CC(=O)CCC(=O)O [Compound 140, 6-[(2-[3-[(2R)-4-(acetyloxy)-2-hydroxy-3,3-dimethylbutanamido]propanamido]ethyl)sulfanyl]-4,6-dioxohexanoic acid]
- activation at 10 µM [1, 4]: ≥ 10%
- inhibition at 50 µM ([2]; 50 uM): ≥ 30%

Structure (SMILES): CC(=O)SCCNC(=O)CCNC(=O)[C@H](O)C(C)(C)COC(=O)[C@H](C)N [Compound 502, (3R)-3-[(2-[[2-(acetylsulfanyl)ethyl]carbamoyl]ethyl)carbamoyl]-3-hydroxy-2,2-dimethylpropyl (2S)-2-aminopropanoate]
- activation at 10 µM [1, 5]: ≥ 10%
- % decrease in IL-1α ([3]; 10 uM): ≥10%
- activation at 1 µM [3]: ≥ 10%

Structure (SMILES): CC(=O)SCCNC(=O)CCNC(=O)[C@H](O)C(C)(C)COC(=O)CN [Compound 560, (3R)-3-[(2-[[2-(acetylsulfanyl)ethyl]carbamoyl]ethyl)carbamoyl]-3-hydroxy-2,2-dimethylpropyl 2-aminoacetate]
- activation at 10 µM [1, 4]: ≥ 10%
- inhibition at 10 µM ([2]; 10 uM): ≥ 30%

Structure (SMILES): CC(=O)OCC(C)(C)[C@@H](OC(C)=O)C(=O)NCCC(=O)NCCSC(C)=O [Compound 1264, (1R)-3-(acetyloxy)-1-[(2-[[2-(acetylsulfanyl)ethyl]carbamoyl]ethyl)carbamoyl]-2,2-dimethylpropyl acetate]
- activation at 10 µM [1, 4]: ≥ 10%
- activation at 1 µM [3]: ≥ 10%

Structure (SMILES): C[C@H](O)CC(=O)CC(=O)SCCNC(=O)CCNC(=O)[C@H](O)C(C)(C)CO [Compound 1306, (2R)-2,4-dihydroxy-N-[2-[(2-[[(5S)-5-hydroxy-3-oxohexanoyl]sulfanyl]ethyl)carbamoyl]ethyl]-3,3-dimethylbutanamide]
- activation at 10 µM [1, 5]: ≥ 10%
